Here are results for 7 molecules from patent US9743675B2, “Antimicrobial composition” (UNIVERSITY OF SURREY, priority 2009, dated 2017).

“And” between values parts separate entries of the source, which are not always exact repeats. Identical values can stand only once. Like-named read-outs stand apart in the source and are kept apart here.

In series [1] the test system is Salmonella enteritidis. Nature of the series: micro broth dilution, coniferaldehyde and vanillin with and without DHAA (Example 9). The class given is cell-based. The note with it: Vanilin/Coniferylaldehyde 0/5 mM; DHAA 20 mM if combined. Here is the method: All stock solutions were stored at 5° C. In vitro bioassay: The MIC of the different treatments was determined using a micro broth dilution method. […] Control wells were prepared by adding 100 μL acetone. […] […] The plates were placed in a laminar flow chamber for 8 hours to evaporate the solvent. […] Where possible, colonies were counted to obtain more precise quantitative data.

Series [2] deals with Salmonella enterica.
Series [3] has as its system Salmonella enterica. The format is cell-based. The procedure:
20 mmol solutions of ursolic acid, oleonic acid and betulin in alcohol were also prepared.

The subject of series [4] is Salmonella enterica. Nature of the series: perlite assay, survival of Salmonella enterica: vanillin with dehydro-abietic acid (Example 1). The class given is cell-based. The procedure:
A 20 mmol solution of dehydroabietic acid in alcohol and water was also prepared.

The subject of series [5] is Salmonella enteritidis. Nature of the series: perlite bio-assay with pure DHAA and vanillin (Example 7). The note with it: DHAA (10 μl of 20 mM) if +DA. The class given is cell-based. Here is the method:
Also, one 20 mM stock solution of DHAA was made in acetone. Bioassay test: The test was carried out using 1.5 ml Eppendorf tubes containing 10 mg of fine perlite. Ten μl of each concentration of vanillin was dispensed into four Eppendorf tubes to obtain four replicates of each concentration. Two of these received 10 μl of DHAA. The tubes were left in laminar flow chamber for 3 h to allow evaporation of the acetone. […] To keep the perlite moist during incubation, 10 μl of sterile R.O water was dispensed into each tube. As controls, two tubes received DHAA only and two tubes received R.O water only. The tubes were incubated overnight, and bacterial survival was quantified by plating the content of each tube onto nutrient agar for the bacterial count.

A further series deals with S. enteritidis. Nature of the series: inhibition zone experiment on TLC plate. The class given is cell-based. The note with it: FIG. 3. The procedure: Two test solutions were prepared, i.e.: (i) vanillin in combination with DHAA, and (ii) stilbene in combination with dehydro-abietic acid (DHAA). The activity of the solutions were then tested on several different micro-organisms, as follows.
A droplet of a test solution was placed on a TLC plate. The solvent was allowed to evaporate and a suspension of test micro-organisms (Gram-positive and Gram-negative bacteria) in broth was applied evenly onto the TLC plate. The plate was incubated overnight. To visualise microbial activity, the TLC plate was sprayed with tetrazolium salt solution. Microbial activity was indicated by a red-pink colour.

A further series concerns S. cerevisiae. Nature of the series: inhibition zone experiment on TLC plate. The format is cell-based. The settings on record: FIG. 8, S. cerevisiae; on its own or in combination with DHAA. The procedure: Two test solutions were prepared, i.e.: (i) vanillin in combination with DHAA, and (ii) stilbene in combination with dehydro-abietic acid (DHAA). The activity of the solutions were then tested on several different micro-organisms, as follows. A droplet of a test solution was placed on a TLC plate. The solvent was allowed to evaporate and a suspension of test micro-organisms (Gram-positive and Gram-negative bacteria) in broth was applied evenly onto the TLC plate. The plate was incubated overnight. To visualise microbial activity, the TLC plate was sprayed with tetrazolium salt solution. Microbial activity was indicated by a red-pink colour. To show the efficacy of the solutions against filamentous fungi, the inoculated TLC plates were incubated until the fungus started to sporulate. To show efficacy against yeast, after incubation, the TLC plates were pressed against a nutrient agar plate. The plate was incubated until yeast colonies were clearly visible.

A short description of series [6]: solubility in water, concluded from water extraction of heated pine shavings. The class given is physicochemical.

`COc1cc(/C=C/C=O)ccc1O` [Coniferyl aldehyde, coniferaldehyde]: the Colony counts result in the series on Salmonella enteritidis [1] is given as “TMTC”.

Consider `O=C(O)CC(O)(CC(=O)O)C(=O)O` [citric acid], for which the “Average no. of cfu recovered per droplet” value in the series with Salmonella enterica [2] (citric acid 20 mmol alone, vanillin 0) was over 100 cfu.

`C[C@H]1[C@H](C)CC[C@]2(C(=O)O)CC[C@]3(C)C(=CC[C@@H]4[C@@]5(C)CC[C@H](O)C(C)(C)[C@@H]5CC[C@]43C)[C@H]12` [ursolic acid]: the “Average no. of cfu recovered per droplet” value in the series with Salmonella enterica [3] is given as over 100 cfu.

In the case of `C=C(C)[C@@H]1CC[C@]2(CO)CC[C@]3(C)[C@H](CC[C@@H]4[C@@]5(C)CC[C@H](O)C(C)(C)[C@@H]5CC[C@]43C)[C@@H]12` [betulin], the “Average no. of cfu recovered per droplet” value in the series on Salmonella enterica [3] (triterpenoid 20 mmol alone, vanillin 0) is on record as over 100 cfu.

Regarding `COc1cc(C=O)ccc1O` [Vanillin, 4-hydroxy-3-methoxybenzaldehyde], the “Average no of cfu recovered per droplet” value is listed as over 100 cfu in the series with Salmonella enterica [4] (vanillin 0.001 mmol, DHAA 20 mmol if combined); over 100 cfu in the series with Salmonella enterica [4] (vanillin 0.019 mmol, DHAA 20 mmol if combined); over 100 cfu in the series on Salmonella enterica [4] (vanillin 0.039 mmol, DHAA 20 mmol if combined); over 100 cfu with Salmonella enterica [4] (vanillin 0.078 mmol, DHAA 20 mmol if combined); over 100 cfu with Salmonella enterica [4] (vanillin 0.156 mmol, DHAA 20 mmol if combined); over 100 cfu in the series with Salmonella enterica [4] (vanillin 0.313 mmol, DHAA 20 mmol if combined). The “Average no of cfu recovered per droplet” value is over 100 cfu with Salmonella enterica [4] (vanillin 0.625 mmol, DHAA 20 mmol if combined); over 100 cfu in the series on Salmonella enterica [4] (vanillin 1.25 mmol, DHAA 20 mmol if combined); over 100 cfu with Salmonella enterica [4] (vanillin 2.5 mmol, DHAA 20 mmol if combined); over 100 cfu in the series on Salmonella enterica [4] (vanillin 5 mmol, DHAA 20 mmol if combined); over 100 cfu in the series on Salmonella enterica [4] (vanillin 10 mmol, DHAA 20 mmol if combined); over 100 cfu with Salmonella enterica [4] (vanillin 20 mmol, DHAA 20 mmol if combined). The “inhibitory effect on Salmonella” value in the series with Salmonella enterica [4] (vanillin on its own, 20 mmol or less) was “no inhibitory effect”. Moreover, the “Average no. of cfu recovered per droplet” value was over 100 cfu in the series with Salmonella enterica [3] and over 100 cfu in the series on Salmonella enterica [2] (vanillin 20 mmol, citric acid 20 mmol if combined). The Salmonella enteritidis count entry with Salmonella enteritidis [5] (vanillin 0.313 mM) is “TMTC”; in the series with Salmonella enteritidis [5] (vanillin 2.5 mM), “TMTC”; in the series with Salmonella enteritidis [5] (vanillin 5 mM), “TMTC”; in the series with Salmonella enteritidis [5] (vanillin 10 mM), 394 CFU/tube and 500 CFU/tube. In addition, in the series with S. enteritidis, the “inhibition of S. enteritidis on TLC plate” value is reported as “ineffective”. The “concentration of vanillin at which it is effective” value in the series with S. cerevisiae is 5 mM.

As for `CC(C)c1ccc2c(c1)CC[C@H]1[C@](C)(C(=O)O)CCC[C@]21C` [Dehydro-Abietic acid, dehydroabietic acid], the “Average no of cfu recovered per droplet” value in the series with Salmonella enterica [4] (DHAA 20 mmol alone, vanillin 0) is over 100 cfu. Also, in series [6], the solubility in water result is “poorly-soluble in water”.

In the case of `CC1(C)CC[C@]2(C(=O)O)CC[C@]3(C)C(=CC[C@@H]4[C@@]5(C)CC[C@H](O)C(C)(C)[C@@H]5CC[C@]43C)[C@@H]2C1` [oleanic acid, oleanolic acid], the “Average no. of cfu recovered per droplet” value in the series on Salmonella enterica [3] is listed as over 100 cfu.
